From publication PMC5098229, “A Novel Non-Peptidic Agonist of the Ghrelin Receptor with Orexigenic Activity In vivo” (Scientific Reports, 2016)

Molecular target: T1, GHS-R1a receptor (ghrelin receptor) (Homo sapiens, UniProt Q92847)
T1 construct: gene GHSR; human GHS-R1a with C-terminal EGFP tag, stably expressed in Hek293a cells
Assay: calcium mobilisation in Hek-GHS-R1a-EGFP cells; no response in wild-type Hek or 5-HT2C cells; reduced by JMV2959
Format: cell-based

T1 sequence (Q92847 whole entry): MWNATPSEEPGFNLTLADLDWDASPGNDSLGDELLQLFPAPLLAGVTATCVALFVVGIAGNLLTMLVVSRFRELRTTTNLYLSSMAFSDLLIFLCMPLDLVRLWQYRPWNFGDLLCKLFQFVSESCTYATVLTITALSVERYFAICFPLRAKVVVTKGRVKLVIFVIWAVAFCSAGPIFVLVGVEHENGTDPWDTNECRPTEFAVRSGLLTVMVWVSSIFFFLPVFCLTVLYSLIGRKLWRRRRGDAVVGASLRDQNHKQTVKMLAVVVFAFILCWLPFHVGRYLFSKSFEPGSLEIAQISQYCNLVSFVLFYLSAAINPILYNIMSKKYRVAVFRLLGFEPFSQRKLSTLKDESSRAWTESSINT

EC50: 3.1 µM
SMILES: COc1cc(C)n(C)c(=O)c1C(F)(F)F [compound 8, 4-Methoxy-1,6-dimethyl-3-(trifluoromethyl)pyridin-2(1H)-one]
